In paper PMC3506555, “[^11C]phenytoin revisited: synthesis by [^11C]CO carbonylation and first evaluation as a P-gp tracer in rats” (EJNMMI Research, 2012):
Several values for one entry are separate records, joined by “and”; a condition that tells them apart may be missing. Identical values can stand only once.

What was measured:
[1] = Metabolite analysis in plasma after i.v. [11C]phenytoin; type: in vivo, Sprague–Dawley rats; settings: for Percentage of intact [11C]phenytoin, plasma: rat plasma, N = 2
Method: Chemicals were obtained from Sigma Aldrich (St. Louis, MO, USA) and were used without further purification. All reactions were carried out under an argon atmosphere unless stated otherwise. [^11C]CO2 was produced using an IBA Cyclone 18/9 cyclotron (IBA, Louvain-La-Neuve, Belgium) by the ^14N(p,α)^11C nuclear reaction performed in a 0.5% O2/N2 gas mixture. Water was purified over a Millipore filter (Millipore, Leiden, The Netherlands). The silica gel used as stationary phase for flash column chromatography was grade 9385, 230 to 400 mesh, 60 Å and obtained from Sigma Aldrich. Chemical shifts (δ) of nuclear magnetic resonance (NMR) spectra were defined relative to the signal of the solvent (7.26 for CDCl3 and 2.50 for DMSO-d6) and measured on a Bruker Avance 250 (Bruker, Billerica, MA, USA), with δ reported in parts per million relative to the solvent. Infrared (IR) spectra were obtained using a Shimadzu FTIR-8400 S (Shimadzu, Kyoto, Japan), and wavelengths (ν) are reported in per centimeter and (s), (m) and (w), indicating strong, moderate and weak signal, respectively. Electrospray ionization high-resolution mass spectrometry (ESI-HRMS) was carried out using a Bruker microTOF-Q instrument in positive ion mode (capillary potential of 4.500 V); electrospray ionization mass spectrometry was carried out using an AB Sciex Qtrap 5500 LC-MS/MS instrument (AB Sciex, Foster City, CA, USA) in negative ion mode. Semi-preparative high performance liquid chromatography (HPLC) was performed on an ACE 5-μM C18, 250*10-mm column (Alltech, Nicholasville, KY, USA) using the following settings: wavelength 230 nm, eluent MeCN/H2O/TFA 60/40/0.15 (v/v/v) and flow 4 mL·min^−1 (method A). Analytical HPLC was performed on a Kromasil 100 C18 10-μM (4.6 to 250 mm) column (Grace Alltech, Breda, The Netherlands) with the following settings: wavelength 230 nm, eluent acetonitrile/water/[…] 75/25/0.2 (v/v/v) and flow 1 mL·min^−1 (method B). Metabolite analysis was performed on a Gemini C18 5-μm (10 to 250 mm) column (Phenomenex, Torrance, CA, USA) (method C) with gradient and a mixture of (A) acetonitrile and (B) 0.1% trifluoro acetic acid in H2O as eluent according to the following scheme: 0 min, 90% B at 0.25 mL·min^−1; 0.5 min, 20% B at 4 mL·min^−1; 9.0 min, 30% B at 4 mL·min^−1; 13 min, 30% B at 4 mL·min^−1; 14.0 min, 90% B at 4.0 mL·min^−1 and 15 min, 90% B at 0.25 mL·min^−1. Tetrahydrofuran (THF), which was used during experiments, was distilled over LiAlH4 just prior to the experiments unless stated otherwise.
To study the metabolic profile of [^11C]phenytoin in the plasma and brain, five male Sprague–Dawley rats were injected with 150 to 250 MBq [^11C]phenytoin in the tail vein under isoflurane anesthesia. Three of these animals were pretreated with 15 mg·kg^−1 tariquidar 20 min prior to [^11C]phenytoin administration. Three arterial blood samples of 0.5, 0.8 and 1.2 mL were withdrawn at 10, 30 and 45 min or at 5, 15 and 25 min after [^11C]phenytoin injection, respectively. Immediately following the last blood sample, the rats were euthanized, and the brain was isolated. All blood samples were collected in heparin tubes and centrifuged at 4.000 rpm for 5 min at 4°C (Hettich Universal 16, Depex B.V., The Netherlands). Plasma was separated from blood cells and, between 0.3 and 0.7 mL, was loaded onto a tC-18 Sep-Pak (Waters, The Netherlands) and washed with 20 mL of water. The eluate was defined as the polar radiolabeled metabolite fraction. Thereafter, the tC-18 Sep-Pak was eluted with 1.5 ml of methanol. This eluate was defined as the nonpolar fraction and was analyzed using HPLC method C. Brain tissue was homogenized with an ultrasonic homogenizer (Braunsonic 1510, Kronberg, Germany) in water, under ice cooling, and subsequently centrifuged at 4,000 rpm for 5 min at 4°C. Separated supernatants were loaded onto a tC-18 Sep-Pak and washed with 20 mL water to obtain the polar fraction.

[2] = Metabolite analysis in brain tissue after i.v. [11C]phenytoin; type: in vivo, Sprague–Dawley rats; settings: rat brain, N = 2
Method: Chemicals were obtained from Sigma Aldrich (St. Louis, MO, USA) and were used without further purification. All reactions were carried out under an argon atmosphere unless stated otherwise. [^11C]CO2 was produced using an IBA Cyclone 18/9 cyclotron (IBA, Louvain-La-Neuve, Belgium) by the ^14N(p,α)^11C nuclear reaction performed in a 0.5% O2/N2 gas mixture. Water was purified over a Millipore filter (Millipore, Leiden, The Netherlands). The silica gel used as stationary phase for flash column chromatography was grade 9385, 230 to 400 mesh, 60 Å and obtained from Sigma Aldrich. Chemical shifts (δ) of nuclear magnetic resonance (NMR) spectra were defined relative to the signal of the solvent (7.26 for CDCl3 and 2.50 for DMSO-d6) and measured on a Bruker Avance 250 (Bruker, Billerica, MA, USA), with δ reported in parts per million relative to the solvent. Infrared (IR) spectra were obtained using a Shimadzu FTIR-8400 S (Shimadzu, Kyoto, Japan), and wavelengths (ν) are reported in per centimeter and (s), (m) and (w), indicating strong, moderate and weak signal, respectively. […]
To study the metabolic profile of [^11C]phenytoin in the plasma and brain, five male Sprague–Dawley rats were injected with 150 to 250 MBq [^11C]phenytoin in the tail vein under isoflurane anesthesia. […] This eluate was defined as the nonpolar fraction and was analyzed using HPLC method C. […]

[3] = Arterial plasma radioactivity concentration during PET scans; type: in vivo, Sprague–Dawley rats
Method: For animals that underwent three scans, the amount of blood withdrawn was reduced by replacing the two samples at 15 and 30 min with a single 20-min sample. […] Standardized uptake values (SUVs) as a function of time were derived by normalizing measured radioactivity concentrations against injected dose and body weight.

[4] = parameters: method as in PMID 98619; settings: dosage of 14 mg/kg, rhesus monkeys; cited from earlier work

Percentage of intact [11C]phenytoin, plasma ([1]; 5 min after injection): 60 ± 7%
Percentage of intact [11C]phenytoin, plasma ([1]; 10 min after injection): 50 ± 16%
Percentage of intact [11C]phenytoin, plasma ([1]; 15 min after injection): 38 ± 3%
Percentage of intact [11C]phenytoin, plasma ([1]; 25 min after injection): 28 ± 2%
Percentage of intact [11C]phenytoin, plasma ([1]; 30 min after injection): 32 ± 18%
Percentage of intact [11C]phenytoin, plasma ([1]; 45 min after injection): 19% and 19 ± 8%
Metabolism in tariquidar-treated versus untreated rats ([1]; tariquidar 15 mg·kg^−1, 20 min prior to tracer): no difference in metabolism
Percentage of intact [11C]phenytoin, brain ([2]; 25 min after injection): 95 ± 1%
Percentage of intact [11C]phenytoin, brain ([2]; 45 min after injection): 83% and 83 ± 5%
Initial plasma concentrations after tariquidar treatment versus baseline ([3]; initial part of scan): somewhat lower than at baseline
Plasma concentrations after tariquidar treatment versus baseline ([3]; towards the end of the scans): similar
Compound: O=C1N[11C](=O)NC1(c1ccccc1)c1ccccc1 [[^11C]phenytoin]
Brain uptake [4]: high brain uptake
